In PubChem BioAssay AID1963831 (Molecular Pharmacology Branch, DTP, NCI, 2024):
Values joined by “and” are separate entries in the source; they are usually repeats but may differ in a detail not shown here. Identical values can stand only once.

Test system: 889142-216-R-J1-PDC complex spheroid viability
Test: Anticancer human tumor 889142-216-R-J1-PDC patient-derived bladder carcinoma cell line growth inhibition [POLQ]
Conditions: for viability, T/C: stronger effect = lower value; active = viability on the fitted dose curve at most 10% of control; inactive = the rest
Experimental: Multicellular complex tumor spheroid response to Polymerase (POL) inhibitors (novobiocin, ART-558, RP6685) in combination with a variety of drugs and investigational agents in selected tumor cell lines
The POL inhibitors (novobiocin, ART-558, and RP6685) were evaluated both individually and in combination with standard of care and investigational anticancer small molecules within a complex spheroid model of solid tumors. . Complex spheroids include a stromal component modeled by human endothelial cells (HUVEC) and fibroblasts modeled by human mesenchymal stem cells (MSCs). The concentration ranges selected for each drug and investigational agent were based upon clinically achievable concentrations if the clinical Cmax of the agent was known.
Compounds. The drugs and investigational agents: novobiocin (NSC847541), ART-558 (NSC835418), RP-6685 (NSC848927), peposertib (NSC802822), ceralasertib (NSC780249), elimusertib (NSC800525), camonsertib (NSC841442), AZD-1390 (NSC803789), olaparib (NSC753686), talazoparib (NSC767125), rucaparib (NSC756644), sotorasib (NSC818433), MRTX-1133 (NSC836407), SN-38 (NSC673596), topotecan (NSC609699), epotoside (NSC141540), doxorubicin (NSC123127), gemcitabine (NSC613327), 5-fluorouracil (NSC19893), paclitaxel (NSC125973), vemurafenib (NSC761431), MSA-2 (NSC828583), SN-011 (NSC837082), adavosertib (NSC754352), prexasertib (NSC758257), carboplatin (NSC241240) and oxaliplatin (NSC266046), were obtained from the National Cancer Institute (NCI) Developmental Therapeutics Program Chemical Repository (21). The FDA-approved anticancer drug set is available from the Developmental Therapeutics Program at https://dtp.cancer.gov/organization/dscb/obtaining/. […] The stock solutions were prepared in dimethyl sulfoxide (DMSO, Sigma-Aldrich, St. Louis, MO, cat. D2650), except for the platinum compounds which were prepared in saline (Quality Biological, Gaithersburg, MD, cat. 114-055-101), at 800-fold the tested concentration and stored at -70 degrees C prior to their use. All drugs and investigational agents were tested over a range starting from a high concentration at or near the clinical Cmax and decreasing in half-log increments. If the clinical Cmax for an agent had not been determined, the highest concentration tested was 10 microM, except for SN-38, which was tested at a high concentration of 1 microM.
Cell Culture. All cells were maintained in an incubator at 37 degrees C and 5% CO2 with 95% humidity. The PDC lines were cultured according to standard operating procedures established by the NCI PDMR (https://pdmr.cancer.gov). Table 3 of the manuscript, lists the cell lines along with the number of the three cell types plated to form the mct-spheroids and media for tumor cell growth. After thawing, all PDC lines, except 997537-175-T-J1-PDC and 415267-285-R-J2-PDC, were cultured in Matrigel-coated flasks prepared with a working solution of 1X Ham's F-12 nutrient mix, without supplementation (Thermo Fisher Scientific, cat. 11765054), 100 U/mL penicillin-streptomycin (Thermo Fisher Scientific, cat. 15140122), and 2.5% Matrigel (Corning Inc., Corning, NY, cat. 354248) for the first three passages. The two PDC lines 997537-175-T-J1-PDC and 415267-285-R-J2-PDC were cultured on uncoated flasks. The 857933-349-R-J2-PDC line was cultured in 6C/Colon 1B media containing advanced DMEM/F-12 (Thermo Fisher Scientific, cat. 12634028), 10 mM HEPES (Thermo Fisher Scientific, cat. 15630080), 1X GlutaMAX supplement (Thermo Fisher Scientific, cat. 35050061), 0.1 mg/mL primocin (InvivoGen, San Diego, CA, cat. ant-pm-2), 10% defined fetal bovine serum, heat inactivated (HyClone Laboratories Inc., Logan, UT, cat. SH30070.03HI), 50% L-WRN conditioned media (ATCC, cat. CRL-3276), 1.25 mM N-Acetyl-L-cysteine (Sigma-Aldrich, cat. A9165), 10 mM nicotinamide (Sigma-Aldrich, cat. N0636), 1X B-27 supplement (Thermo Fisher Scientific, cat. 17504044), 1X N-2 supplement (Thermo Fisher Scientific, cat. […]

[1] = curve of first compound, second compound 0.0316 µM
[2] = curve of first compound, second compound 0.1 µM
[3] = curve of first compound, second compound 0.316 µM
[4] = curve of first compound, second compound 1 µM
[5] = curve of first compound, second compound 3.16 µM
[6] = curve of first compound, second compound 10 µM
[7] = second compound 0.0316 µM, first compound 0.0316 µM
[8] = second compound 0.0316 µM, first compound 0.1 µM
[9] = second compound 0.0316 µM, first compound 0.316 µM
[10] = second compound 0.0316 µM, first compound 1 µM
[11] = second compound 0.0316 µM, first compound 3.16 µM
[12] = second compound 0.0316 µM, first compound 10 µM
[13] = second compound 0.1 µM, first compound 0.0316 µM
[14] = second compound 0.1 µM, first compound 0.1 µM
[15] = second compound 0.1 µM, first compound 0.316 µM
[16] = second compound 0.1 µM, first compound 1 µM
[17] = second compound 0.1 µM, first compound 3.16 µM
[18] = second compound 0.1 µM, first compound 10 µM
[19] = second compound 0.316 µM, first compound 0.0316 µM
[20] = second compound 0.316 µM, first compound 0.1 µM
[21] = second compound 0.316 µM, first compound 0.316 µM
[22] = second compound 0.316 µM, first compound 1 µM
[23] = second compound 0.316 µM, first compound 3.16 µM
[24] = second compound 0.316 µM, first compound 10 µM
[25] = second compound 1 µM, first compound 0.0316 µM
[26] = second compound 1 µM, first compound 0.1 µM
[27] = second compound 1 µM, first compound 0.316 µM
[28] = second compound 1 µM, first compound 1 µM
[29] = second compound 1 µM, first compound 3.16 µM
[30] = second compound 1 µM, first compound 10 µM
[31] = second compound 3.16 µM, first compound 0.0316 µM
[32] = second compound 3.16 µM, first compound 0.1 µM
[33] = second compound 3.16 µM, first compound 0.316 µM
[34] = second compound 3.16 µM, first compound 1 µM
[35] = second compound 3.16 µM, first compound 3.16 µM
[36] = second compound 3.16 µM, first compound 10 µM
[37] = second compound 10 µM, first compound 0.0316 µM
[38] = second compound 10 µM, first compound 0.1 µM
[39] = second compound 10 µM, first compound 0.316 µM
[40] = second compound 10 µM, first compound 1 µM
[41] = second compound 10 µM, first compound 3.16 µM
[42] = second compound 10 µM, first compound 10 µM
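Also: spheroids exposed to compounds for seven days.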

CCc1cc2c(N3CCc4c(cc(Cn5ccnc5)cc4-c4cn(C)nc4C(F)(F)F)C3=O)cc(C)nc2c(OC)n1 + Nc1ccc(C#CCN(C(=O)Cc2ncc(C(F)(F)F)cc2C(F)(F)F)c2ccc(F)cc2)nn1
inactive: viability, T/C [7] 98.2% | viability, T/C [8] 96.9% | viability, T/C [9] 109% | viability, T/C [10] 126% | viability, T/C [11] 108% | viability, T/C [12] 80.2% | viability, T/C [13] 123% | viability, T/C [14] 97.6% | viability, T/C [15] 126% | viability, T/C [16] 133% | viability, T/C [17] 113% | viability, T/C [18] 79.5% | viability, T/C [19] 104% | viability, T/C [20] 119% | viability, T/C [21] 123% | viability, T/C [22] 135% | viability, T/C [23] 126% | viability, T/C [24] 75.2% | viability, T/C [25] 125% | viability, T/C [26] 116% | viability, T/C [27] 132% | viability, T/C [28] 135% | viability, T/C [29] 109% | viability, T/C [30] 67.9% | viability, T/C [31] 109% | viability, T/C [32] 125% | viability, T/C [33] 119% | viability, T/C [34] 114% | viability, T/C [35] 116% | viability, T/C [36] 97.3% | viability, T/C [37] 97.8% | viability, T/C [38] 126% | viability, T/C [39] 112% | viability, T/C [40] 124% | viability, T/C [41] 104% | viability, T/C [42] 93.4%
> 10 µM: IC50 [1] | IC50 [2] | IC50 [3] | IC50 [4] | IC50 [5] | IC50 [6]

O=C(c1cc(Cc2n[nH]c(=O)c3ccccc23)ccc1F)N1CCN(C(=O)C2CC2)CC1
inactive: viability, T/C (compound 0.0316 µM) 99.2% and 94.9% and 95.6% | viability, T/C (compound 0.1 µM) 83.3% and 99.5% and 98.7% | viability, T/C (compound 0.316 µM) 101% and 83.8% and 88.6% | viability, T/C (compound 1 µM) 81.2% and 111% and 91.4% | viability, T/C (compound 3.16 µM) 83.2% and 97.8% and 72.5% | viability, T/C (compound 10 µM) 60.4% and 69.9% and 69%
> 10 µM: IC50 (curve of compound)

CC[C@@]1(O)C(=O)OCc2c1cc1n(c2=O)Cc2cc3c(CN(C)C)c(O)ccc3nc2-1
inactive: viability, T/C (compound 0.000316 µM) 110% and 87.5% | viability, T/C (compound 0.001 µM) 96.5% and 89.5% | viability, T/C (compound 0.00316 µM) 103% and 85.1% | viability, T/C (compound 0.01 µM) 91.3% and 89.6% | viability, T/C (compound 0.0316 µM) 60.9% and 63.7% | viability, T/C (compound 0.1 µM) 60.2% and 49.3%
> 0.1 µM and 0.0947 µM: IC50 (curve of compound)

COc1cc2cc(C(=O)CCC(=O)O)sc2cc1OC
inactive: viability, T/C (compound 0.0316 µM) 105% and 116% and 128% | viability, T/C (compound 0.1 µM) 140% and 92% and 89.7% | viability, T/C (compound 0.316 µM) 89.4% and 92.1% and 94.9% | viability, T/C (compound 1 µM) 115% and 88.4% and 103% | viability, T/C (compound 3.16 µM) 79.9% and 80.8% and 98% | viability, T/C (compound 10 µM) 67.3% and 72.8% and 95.3%
> 10 µM: IC50 (curve of compound)

CNCc1ccc(-c2[nH]c3cc(F)cc4c3c2CCNC4=O)cc1 + Cc1cccc(N(C)C(=O)C2C(O)CCN2c2nc(C)cc(C(F)(F)F)c2C#N)c1
inactive: viability, T/C [7] 110% | viability, T/C [8] 106% | viability, T/C [9] 83.5% | viability, T/C [10] 92.7% | viability, T/C [11] 101% | viability, T/C [12] 58.3% | viability, T/C [13] 91.9% | viability, T/C [14] 87% | viability, T/C [15] 95.9% | viability, T/C [16] 91.7% | viability, T/C [17] 85.4% | viability, T/C [18] 78.5% | viability, T/C [19] 92.8% | viability, T/C [20] 89.4% | viability, T/C [21] 109% | viability, T/C [22] 110% | viability, T/C [23] 126% | viability, T/C [24] 79.9% | viability, T/C [25] 82.3% | viability, T/C [26] 120% | viability, T/C [27] 104% | viability, T/C [28] 119% | viability, T/C [29] 113% | viability, T/C [30] 70.7% | viability, T/C [31] 102% | viability, T/C [32] 99% | viability, T/C [33] 110% | viability, T/C [34] 89.2% | viability, T/C [35] 96.6% | viability, T/C [36] 63.9% | viability, T/C [37] 73.7% | viability, T/C [38] 81.2% | viability, T/C [39] 88.4% | viability, T/C [40] 94.4% | viability, T/C [41] 78.5% | viability, T/C [42] 57.2%
> 10 µM: IC50 [1] | IC50 [2] | IC50 [3] | IC50 [4] | IC50 [5] | IC50 [6]

COC1C(OC(N)=O)C(O)C(Oc2ccc3c(O)c(NC(=O)c4ccc(O)c(CC=C(C)C)c4)c(=O)oc3c2C)OC1(C)C (stereo not drawn)
inactive: viability, T/C (compound 0.0316 µM) 109% [middle of 12 runs] | viability, T/C (compound 0.316 µM) 94.6% [middle of 12 runs]
> 10 µM: IC50 (compound alone, run of 01/08/2024)
